Assay results taken from patent US6355428B1, “Nucleic acid ligand interaction assays” (Genelabs Technologies, Inc., priority 1998, dated 2002).
Starred links: 1 amine or outer side, 2 acyl side, 3 side chain; linkers in the order of their positions; H or OH if unused. Positions of bridges follow the written chain, without caps; N, C: chain ends. Non-standard residues stand in square brackets, D forms with d. Residues, ends and D or L forms follow the SMILES beside them. Chains are numbered I, II in the order given. Actinocin(9to1) = Cc1c2oc3c(C)ccc(C(=O)[*:1])c3nc-2c(C(=O)[*:2])c(N)c1=O; NMeV = CN[C@H](C(=O)O)C(C)C; Sar = CNCC(=O)O

Key:
[1] = tested on: A/T rich, G/C rich and mixed sequence DNA oligonucleotides; assay: SPA direct binding assay, sequence preference over panel of indicator oligonucleotides; settings: A/T rich 5′-AAAATAATAAAG, G/C rich 5′-GGCGCGG, mixed 5′-GTTGCAGATC; increasing drug
Text: This technology can be applied to studies of ligand binding as disclosed herein. […] These beads are impregnated with scintillant. The second oligonucleotide is labeled with a weak β-emitter, such as ^3H or ^33P. The radioactive second oligonucleotide is mixed with a solution of the beads under conditions at which the first and second oligonucleotides exist primarily as single strands, as described above. The signal will thus be low, as the oligonucleotides are non-hybridized. When ligand is added, the duplex form is stabilized, and the increased proximity of the radioactive isotope (e.g., ^3H, ^33P) in the second oligonucleotide causes the bead to which the first oligonucleotide is bound to scintillate. A signal thus indicates the presence of an effective binding ligand molecule; test sequences giving higher signals indicate the relative preference for different sequences.
Indicator oligonucleotides as shown in Table 1 were used in this assay, as shown in Table II and FIGS. 4A-E. One strand of each duplex was labeled with biotin at the 5′-end, and the complementary strand was 3′-labeled with ^33P. The two complementary strands were incubated with streptavidin-coated SPA beads (Amersham, Arlington Heights, Ill.) at room temperature in a buffer containing 20 mM HEPES, pH 7.5, 0.1 mM EDTA, and 20 mM NaCl. In the absence of ligand, and under these conditions, the oligonucleotides exist in single-stranded conformation. As a result, the oligonucleotide containing the radioactive label is not in close proximity to the SPA bead, and the light given off by the beads is low, i.e., at background. As a duplex-stabilizing ligand is added, the radioactive ^33P is brought into close proximity to the SPA bead, and the light emitted from the SPA bead increases.

[2] = tested on: F/Q indicator oligonucleotide pairs (Table I); assay: Fluorescence quenching direct binding assay, panel of F/Q indicator oligonucleotide pairs; settings: concentrations up to 5 μM; tRNA added
Method: (§1) The specific examples described in this section employ fluorescence quenching as the detection system. In these examples, because conditions are adjusted to maintain the oligonucleotides in single-stranded form in the absence of the ligand, the assay starts with the system at a high or maximum level of fluorescence, and fluorescence generally decreases, depending on binding affinity, as the ligand is added.
In the Figure legends, RNA oligonucleotides are denoted by an “r” at the beginning of the sequence, and single stranded controls by “ss” at the end of the sequence. These single stranded sequence, are used alone in control experiments, which thus employ only an “F” strand and no complementary quenching strand. Any quenching of fluorescence that is not due to hybridization can thus be acounted for. Maximum quenching expected on complete hybridization of these oligonucleotides is 85-90%; therefore some signal remains after complete hybridization. […]
According to the general method described above, increasing amounts of netropsin or actinomycin, respectively, were added to mixtures of selected F/Q indicator oligonucleotide pairs, whose sequences are shown in the legends of FIGS. 1 and 3. […] The Figures show the level of fluorescence observed, relative to a control having no added drug, for each indicator pair (or single strand) as the level of added drug was increased. […]

[3] = tested on: RNA 5′-rCUAGAUCUGA-3′ (SEQ ID NO: 23) double stranded RNA probe; assay: Fluorescence quenching direct binding assay, RNA; settings: increasing bekanomycin
Method: as §1
In the Figure legends, RNA oligonucleotides are denoted by an “r” at the beginning of the sequence, and single stranded controls by “ss” at the end of the sequence. These single stranded sequence, are used alone in control experiments, which thus employ only an “F” strand and no complementary quenching strand. Any quenching of fluorescence that is not due to hybridization can thus be acounted for. Maximum quenching expected on complete hybridization of these oligonucleotides is 85-90%; therefore some signal remains after complete hybridization. The signal is plotted so that it is normalized to the control signal in the absence of ligand.
Netropsin has been shown in previous studies to bind preferentially to A/T rich regions of DNA. […] Netropsin also binds well to the sequence 5′-GCGGTATTT-3′ (SEQ ID NO: 12), which is a useful “indicator” probe (as discussed below), having both C/G and A/T rich sequences. […]

SMILES	sequence preference of binding (FIGS. 4A-E) [1]	sequences bound (FIG. 3B) [2]	binding preference over all other test oligonucleotides (FIG. 3C) [3]
CC(=O)NCC(=O)O.CC(=O)NCC(=O)O.N=C(N)c1ccc(N=NNc2ccc(C(=N)N)cc2)cc1 [berenil]	no strong preference	–	–
COC(C(=O)C(O)C(C)O)C1Cc2cc3cc(OC4CC(OC5CC(O)C(OC)C(C)O5)C(OC(C)=O)C(C)O4)c(C)c(O)c3c(O)c2C(=O)C1OC1CC(OC2CC(OC3CC(C)(O)C(OC(C)=O)C(C)O3)C(O)C(C)O2)C(O)C(C)O1 (centres unmarked) [chromomycin A]	preferred GC-rich sequences	–	–
Cc1c2oc3c(C)ccc(C(=O)N[C@@H]4C(=O)N[C@H](C(C)C)C(=O)N5CCC[C@H]5C(=O)N(C)CC(=O)N(C)[C@@H](C(C)C)C(=O)O[C@@H]4C)c3nc-2c(C(=O)N[C@@H]2C(=O)N[C@H](C(C)C)C(=O)N3CCC[C@H]3C(=O)N(C)CC(=O)N(C)[C@@H](C(C)C)C(=O)O[C@@H]2C)c(N)c1=O [actinomycin D] (I: T[dV]P[Sar][NMeV] / II: T[dV]P[Sar][NMeV]; ester I:1-I:C, II:1-II:C; linker I:N-II:N via Actinocin(9to1))	preferred GC-rich sequences	binding only to the C/G containing sequences (SEQ ID NOS: 6, 8, and 12)	–
NCC1OC(OC2C(N)CC(N)C(OC3OC(CO)C(O)C(N)C3O)C2O)C(N)C(O)C1O (centres unmarked) [Bekanomycin, bekanomycin]	–	–	very strong preference for the double stranded RNA probe
